± gives the uncertainty stated by the source.
Assay: xn = mol fraction of the nth substance listed

CC(O)C(=O)[O-].CN(C)CCOCC[NH+](C)C + O
Settings	viscosity [mPa·s]
298.15 K, 100 kPa, x1 = 0.06665	2.86 ± 0.29

O + CCOS(=O)(=O)[O-].CC[n+]1ccn(C)c1
Settings	electrical conductivity [S/m]
298.15 K, 101.3 kPa, x1 = 1	0.00264 ± 0.00026

O + C[C@@H](O)[C@H](N)C(=O)O + CCCCCCCCCCCCCCCC[n+]1ccccc1.[Cl-]
Settings	electrical conductivity [S/m]
308.15 K, 101 kPa, x2 = 0, x3 = 0	6.7e-05 ± 1e-06

CCCC[n+]1ccn(C)c1.F[B-](F)(F)F + CC#N
Settings	electrical conductivity [S/m]	viscosity [mPa·s]
298.15 K, 100 kPa, x1 = 0.1059	1.25 ± 0.013	0.879 ± 0.011
298.15 K, 100 kPa, x1 = 0.2213	1.16 ± 0.012	2.027 ± 0.026
298.15 K, 100 kPa, x1 = 0.3008	1.08 ± 0.011	3.372 ± 0.043
298.15 K, 100 kPa, x1 = 0.3894	0.782 ± 0.008	5.548 ± 0.071
298.15 K, 100 kPa, x1 = 0.4432	0.733 ± 0.007	7.71 ± 0.1
298.15 K, 100 kPa, x1 = 0.6178	0.509 ± 0.005	18.74 ± 0.24
298.15 K, 100 kPa, x1 = 0.7111	0.374 ± 0.004	26.09 ± 0.33
298.15 K, 100 kPa, x1 = 0.8146	0.338 ± 0.003	41.69 ± 0.53
298.15 K, 100 kPa, x1 = 0.9113	0.252 ± 0.003	68.51 ± 0.99
298.15 K, 100 kPa, x1 = 1	0.243 ± 0.002	104.7 ± 2.6
298.15 K, 101 kPa, x2 = 0	0.194 ± 0.023	116 ± 40
298.15 K, 101 kPa, x2 = 0.0956	0.278 ± 0.033	80 ± 15
298.15 K, 101 kPa, x2 = 0.2023	0.453 ± 0.054	50.9 ± 1.6
298.15 K, 101 kPa, x2 = 0.3174	0.672 ± 0.081	31 ± 3.1
298.15 K, 101 kPa, x2 = 0.4034	0.91 ± 0.11	20.9 ± 2.2
298.15 K, 101 kPa, x2 = 0.5137	1.34 ± 0.16	11.9 ± 1.3
298.15 K, 101 kPa, x2 = 0.6131	1.83 ± 0.22	6.78 ± 0.82
298.15 K, 101 kPa, x2 = 0.7085	2.48 ± 0.3	3.78 ± 0.5
298.15 K, 101 kPa, x2 = 0.8093	3.1 ± 0.37	1.91 ± 0.26
298.15 K, 101 kPa, x2 = 0.8631	3.21 ± 0.39	1.32 ± 0.19
298.15 K, 101.33 kPa, x2 = 0.3999	–	17.6 ± 1.3
298.15 K, 101.33 kPa, x2 = 0.7988	–	1.79 ± 0.17
298.15 K, 101.33 kPa, x2 = 0.8988	–	0.887 ± 0.092
303.15 K, 101 kPa, x2 = 0	–	84.2 ± 1.6
303.15 K, 101 kPa, x2 = 0.2034	–	35.6 ± 0.4
313.15 K, 101 kPa, x2 = 0.4013	–	11.15 ± 0.13
313.15 K, 101 kPa, x2 = 0.6018	–	4.33 ± 0.05
323.15 K, 101 kPa, x2 = 0	–	35.5 ± 0.4
323.15 K, 101 kPa, x2 = 0.3011	–	12.61 ± 0.14
323.15 K, 101 kPa, x2 = 0.5	–	5.7 ± 0.07
323.15 K, 101 kPa, x2 = 0.7997	–	1.221 ± 0.016

COCC[n+]1ccn(C)c1.O=S(=O)([N-]S(=O)(=O)C(F)(F)F)C(F)(F)F + O
101 kPa, x1 = 0.838
Settings	electrical conductivity [S/m]	viscosity [mPa·s]
283 K	–	66.6 ± 1.6
298.15 K	0.58	–

CCC[N+]1(C)CCCC1.O=S(=O)([N-]S(=O)(=O)C(F)(F)F)C(F)(F)F + CC[n+]1ccn(C)c1.O=S(=O)([N-]S(=O)(=O)C(F)(F)F)C(F)(F)F
101 kPa
Settings	electrical conductivity, 293.15 K [S/m]	electrical conductivity, 333.15 K [S/m]	electrical conductivity, 353.15 K [S/m]	viscosity, 293.15 K [mPa·s]	viscosity, 333.15 K [mPa·s]	viscosity, 353.15 K [mPa·s]
x2 = 0	–	1.18 ± 0.12	1.76 ± 0.18	–	18.8 ± 1.9	11.6 ± 1.2
x2 = 0.5	0.528 ± 0.053	–	–	53.4 ± 5.5	–	–

O + CCCCCCCCCCCCCCn1cc[n+](C)c1.[Br-] + CC[N+](CC)(CC)CC.[Br-]
101 kPa, frequency 0.001 MHz, x2 = 0, x3 = 0
Settings	electrical conductivity [S/m]
298.15 K	0.00046 ± 7e-05
308.15 K	0.00115 ± 7e-05
318.15 K	0.00157 ± 8e-05

CCC1COC(=O)O1 (centres undefined) + O=S(=O)([N-]S(=O)(=O)C(F)(F)F)C(F)(F)F.[Li+] + COC(=O)OC
298.15 K, 100 kPa
Settings	viscosity [mPa·s]
x2 = 0.333, x3 = 0	323 ± 20
x2 = 0.333, x3 = 0.3335	157 ± 7
x2 = 0.333, x3 = 0.5002	93.7 ± 3.4

CN(CCO)CCO + CCCC[n+]1ccn(C)c1.F[B-](F)(F)F
101 kPa
Settings	viscosity [mPa·s]
293.15 K, x2 = 0.8999	105.6 ± 6.5
303.15 K, x2 = 0.3	43.7 ± 2.6
303.15 K, x2 = 0.8999	63.5 ± 3.9
323.15 K, x2 = 0.1974	17.8 ± 1.1
323.15 K, x2 = 0.6	18.8 ± 1.1
333.15 K, x2 = 0.1974	12.09 ± 0.73
333.15 K, x2 = 0.7998	16.8 ± 1

O=C([O-])[O-].[Na+].[Na+] + CCCCCCCCCCCC[N+](C)(C)C.[Br-] + O
298.15 K, 101 kPa
Settings	electrical conductivity [S/m]
x1 = 0.0001801, x2 = 7.809e-05	0.2221 ± 0.0004
x1 = 0.0001801, x2 = 8.963e-05	0.2267 ± 0.0005
x1 = 0.0001801, x2 = 0.000101	0.2313 ± 0.0005
x1 = 0.0001801, x2 = 0.0001125	0.2359 ± 0.0005
x1 = 0.0001801, x2 = 0.0001241	0.2404 ± 0.0005
x1 = 0.0001801, x2 = 0.0001356	0.2449 ± 0.0005
x1 = 0.0001801, x2 = 0.0001466	0.2493 ± 0.0005
x1 = 0.0001801, x2 = 0.000158	0.2537 ± 0.0005
x1 = 0.0001801, x2 = 0.000169	0.2579 ± 0.0005
x1 = 0.0001801, x2 = 0.00018	0.2622 ± 0.0005
x1 = 0.0001801, x2 = 0.0001908	0.2663 ± 0.0005
x1 = 0.0001801, x2 = 0.0002018	0.2705 ± 0.0005
x1 = 0.0001801, x2 = 0.0002126	0.2745 ± 0.0006
x1 = 0.0001801, x2 = 0.0002234	0.278 ± 0.0006
x1 = 0.0001801, x2 = 0.000234	0.2806 ± 0.0006
x1 = 0.0001801, x2 = 0.0002447	0.2825 ± 0.0006
x1 = 0.0001801, x2 = 0.0002551	0.2841 ± 0.0006
x1 = 0.0001801, x2 = 0.0002658	0.2855 ± 0.0006
x1 = 0.0001801, x2 = 0.0002762	0.2868 ± 0.0006
x1 = 0.0001801, x2 = 0.0002867	0.288 ± 0.0006
x1 = 0.0001801, x2 = 0.0002986	0.2893 ± 0.0006
x1 = 0.0001801, x2 = 0.0003116	0.2908 ± 0.0006
x1 = 0.0001801, x2 = 0.000342	0.2939 ± 0.0006
x1 = 0.0001802, x2 = 0	0.1927 ± 0.0004
x1 = 0.0001802, x2 = 2.16e-06	0.1931 ± 0.0004
x1 = 0.0001802, x2 = 4.51e-06	0.1938 ± 0.0004
x1 = 0.0001802, x2 = 7.94e-06	0.1951 ± 0.0004
x1 = 0.0001802, x2 = 1.154e-05	0.1963 ± 0.0004
x1 = 0.0001802, x2 = 1.659e-05	0.1981 ± 0.0004
x1 = 0.0001802, x2 = 2.309e-05	0.2004 ± 0.0004
x1 = 0.0001802, x2 = 3.174e-05	0.2037 ± 0.0004
x1 = 0.0001802, x2 = 4.31e-05	0.2082 ± 0.0004
x1 = 0.0001802, x2 = 5.483e-05	0.2128 ± 0.0004
x1 = 0.0001802, x2 = 6.655e-05	0.2175 ± 0.0004
x1 = 0.001798, x2 = 0.0001498	1.359 ± 0.0027
x1 = 0.001798, x2 = 0.0001618	1.363 ± 0.0027
x1 = 0.001798, x2 = 0.0001776	1.367 ± 0.0027
x1 = 0.001798, x2 = 0.0001934	1.371 ± 0.0027
x1 = 0.001798, x2 = 0.000209	1.374 ± 0.0027
x1 = 0.001798, x2 = 0.0002246	1.377 ± 0.0028
x1 = 0.001798, x2 = 0.0002401	1.38 ± 0.0028
x1 = 0.001798, x2 = 0.0002555	1.383 ± 0.0028
x1 = 0.001798, x2 = 0.0002702	1.386 ± 0.0028
x1 = 0.001798, x2 = 0.0002851	1.389 ± 0.0028
x1 = 0.001798, x2 = 0.0003037	1.393 ± 0.0028
x1 = 0.001798, x2 = 0.0003216	1.396 ± 0.0028
x1 = 0.001798, x2 = 0.0003394	1.399 ± 0.0028
x1 = 0.001798, x2 = 0.0003576	1.402 ± 0.0028
x1 = 0.001798, x2 = 0.0003752	1.405 ± 0.0028
x1 = 0.001798, x2 = 0.0003925	1.408 ± 0.0028
x1 = 0.001799, x2 = 0	1.335 ± 0.0027
x1 = 0.001799, x2 = 8.18e-06	1.333 ± 0.0027
x1 = 0.001799, x2 = 1.563e-05	1.333 ± 0.0027
x1 = 0.001799, x2 = 2.381e-05	1.333 ± 0.0027
x1 = 0.001799, x2 = 3.217e-05	1.333 ± 0.0027
x1 = 0.001799, x2 = 4.072e-05	1.334 ± 0.0027
x1 = 0.001799, x2 = 5.126e-05	1.335 ± 0.0027
x1 = 0.001799, x2 = 6.398e-05	1.338 ± 0.0027
x1 = 0.001799, x2 = 7.671e-05	1.34 ± 0.0027
x1 = 0.001799, x2 = 8.888e-05	1.343 ± 0.0027
x1 = 0.001799, x2 = 0.0001014	1.346 ± 0.0027
x1 = 0.001799, x2 = 0.0001138	1.349 ± 0.0027
x1 = 0.001799, x2 = 0.000126	1.352 ± 0.0027
x1 = 0.001799, x2 = 0.0001379	1.355 ± 0.0027

— the CheMixHub ionic liquid set
